Data reported in ChEMBL document CHEMBL2073864, “Transport of glyburide by placental ABC transporters: implications in fetal drug exposure” (Placenta, 2006).
pIC50: −log10 of the molar value.

What was measured:
Assay type in all cases: functional, cell-based
[1] = molecular target: T1, ATP-binding cassette sub-family C member 2 (Homo sapiens, UniProt Q92887); assay: TP_TRANSPORTER: inhibition of 5-carboxyfluorescein accumulation in MRP2-expressing MDCK cells; conditions: dog
[2] = molecular target: T1, ATP-binding cassette sub-family C member 2; assay: TP_TRANSPORTER: inhibition of 5-carboxyfluorescein accumulation by glyburide at a concentration of 200uM in MRP2-expressing MDCK cells; design: scale not given: the % may be the effect or the level left; conditions: dog
[3] = molecular target: T2, Broad substrate specificity ATP-binding cassette transporter ABCG2 (Homo sapiens, UniProt Q9UNQ0); assay: TP_TRANSPORTER: inhibition of mitoxantrone efflux in BCRP-expressing MCF7-MX cells
T2 sequence (Q9UNQ0 whole entry): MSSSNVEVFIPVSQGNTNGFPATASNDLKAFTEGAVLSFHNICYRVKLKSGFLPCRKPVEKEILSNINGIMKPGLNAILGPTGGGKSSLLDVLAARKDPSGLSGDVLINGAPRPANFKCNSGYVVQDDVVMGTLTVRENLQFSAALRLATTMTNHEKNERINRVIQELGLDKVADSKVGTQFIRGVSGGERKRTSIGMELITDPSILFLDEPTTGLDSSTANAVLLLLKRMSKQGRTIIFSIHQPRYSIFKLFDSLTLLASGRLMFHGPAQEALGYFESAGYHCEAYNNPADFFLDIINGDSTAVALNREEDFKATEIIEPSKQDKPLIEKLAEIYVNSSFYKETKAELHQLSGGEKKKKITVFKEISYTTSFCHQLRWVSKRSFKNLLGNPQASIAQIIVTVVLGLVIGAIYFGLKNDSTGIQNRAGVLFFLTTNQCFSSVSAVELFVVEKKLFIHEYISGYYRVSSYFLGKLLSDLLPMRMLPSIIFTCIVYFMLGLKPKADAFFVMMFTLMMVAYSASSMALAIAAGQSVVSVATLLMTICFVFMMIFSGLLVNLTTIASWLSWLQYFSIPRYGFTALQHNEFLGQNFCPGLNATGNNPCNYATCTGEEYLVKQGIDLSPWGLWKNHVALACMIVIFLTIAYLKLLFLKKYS

[4] = molecular target: Multidrug resistance associated protein (Homo sapiens) (UniProt Q96QA9); assay: TP_TRANSPORTER: inhibition of 5-carboxyfluorescein accumulation by glyburide at a concentration of 200uM in MRP3-expressing MDCK cells; design: scale not given: the % may be the effect or the level left
Sequence of Multidrug resistance associated protein (Homo sapiens) (Q96QA9 as listed by the source): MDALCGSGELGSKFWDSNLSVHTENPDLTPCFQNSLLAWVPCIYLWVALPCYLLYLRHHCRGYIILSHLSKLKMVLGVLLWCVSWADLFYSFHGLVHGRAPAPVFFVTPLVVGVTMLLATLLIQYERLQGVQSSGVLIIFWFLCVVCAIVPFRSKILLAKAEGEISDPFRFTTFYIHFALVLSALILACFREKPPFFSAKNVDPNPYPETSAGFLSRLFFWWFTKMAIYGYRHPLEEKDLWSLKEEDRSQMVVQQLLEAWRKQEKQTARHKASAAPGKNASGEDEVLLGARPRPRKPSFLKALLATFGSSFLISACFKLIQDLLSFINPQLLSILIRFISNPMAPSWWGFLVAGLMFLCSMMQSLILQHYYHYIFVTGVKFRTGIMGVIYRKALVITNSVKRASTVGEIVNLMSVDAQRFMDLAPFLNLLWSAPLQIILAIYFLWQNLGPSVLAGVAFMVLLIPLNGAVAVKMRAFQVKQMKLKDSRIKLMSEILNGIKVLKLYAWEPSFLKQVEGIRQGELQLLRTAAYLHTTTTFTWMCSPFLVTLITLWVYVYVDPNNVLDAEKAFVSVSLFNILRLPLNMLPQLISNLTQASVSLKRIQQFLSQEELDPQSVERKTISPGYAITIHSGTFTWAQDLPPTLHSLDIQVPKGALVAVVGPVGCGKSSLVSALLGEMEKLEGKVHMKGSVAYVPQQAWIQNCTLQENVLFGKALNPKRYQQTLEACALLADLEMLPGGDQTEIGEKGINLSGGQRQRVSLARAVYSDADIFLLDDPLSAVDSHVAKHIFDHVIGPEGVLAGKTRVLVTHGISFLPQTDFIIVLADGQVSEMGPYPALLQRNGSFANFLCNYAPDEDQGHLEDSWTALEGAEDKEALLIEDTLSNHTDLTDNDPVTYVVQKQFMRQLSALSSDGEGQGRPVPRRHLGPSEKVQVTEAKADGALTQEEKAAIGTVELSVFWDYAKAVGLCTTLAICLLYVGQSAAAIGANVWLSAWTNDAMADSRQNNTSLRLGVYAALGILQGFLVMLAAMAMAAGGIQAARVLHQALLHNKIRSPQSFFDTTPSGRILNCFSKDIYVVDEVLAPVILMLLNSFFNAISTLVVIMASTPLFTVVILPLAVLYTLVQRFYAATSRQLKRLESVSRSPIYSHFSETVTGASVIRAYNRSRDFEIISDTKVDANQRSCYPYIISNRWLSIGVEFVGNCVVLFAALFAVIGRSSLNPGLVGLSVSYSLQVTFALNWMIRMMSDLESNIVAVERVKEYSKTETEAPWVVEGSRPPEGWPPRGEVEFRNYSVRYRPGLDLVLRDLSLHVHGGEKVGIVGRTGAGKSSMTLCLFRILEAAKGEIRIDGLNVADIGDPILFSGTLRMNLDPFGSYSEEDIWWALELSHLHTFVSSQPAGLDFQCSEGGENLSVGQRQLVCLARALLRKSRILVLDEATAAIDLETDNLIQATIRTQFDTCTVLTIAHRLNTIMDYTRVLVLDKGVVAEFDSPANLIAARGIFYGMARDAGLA

[5] = molecular target: Multidrug resistance associated protein (Homo sapiens) (UniProt Q96QA9); assay: TP_TRANSPORTER: inhibition of 5-carboxyfluorescein accumulation by glyburide at a concentration of 10uM in MRP3-expressing MDCK cells
[6] = molecular target: T3, Multidrug resistance-associated protein 1 (Mus musculus, UniProt O35379); assay: TP_TRANSPORTER: inhibition of 5-carboxyfluorescein accumulation in the presence of glyburide at a concentration of 10uM in MRP1-expressing HeLa cells; conditions: human
T3 sequence (O35379 whole entry): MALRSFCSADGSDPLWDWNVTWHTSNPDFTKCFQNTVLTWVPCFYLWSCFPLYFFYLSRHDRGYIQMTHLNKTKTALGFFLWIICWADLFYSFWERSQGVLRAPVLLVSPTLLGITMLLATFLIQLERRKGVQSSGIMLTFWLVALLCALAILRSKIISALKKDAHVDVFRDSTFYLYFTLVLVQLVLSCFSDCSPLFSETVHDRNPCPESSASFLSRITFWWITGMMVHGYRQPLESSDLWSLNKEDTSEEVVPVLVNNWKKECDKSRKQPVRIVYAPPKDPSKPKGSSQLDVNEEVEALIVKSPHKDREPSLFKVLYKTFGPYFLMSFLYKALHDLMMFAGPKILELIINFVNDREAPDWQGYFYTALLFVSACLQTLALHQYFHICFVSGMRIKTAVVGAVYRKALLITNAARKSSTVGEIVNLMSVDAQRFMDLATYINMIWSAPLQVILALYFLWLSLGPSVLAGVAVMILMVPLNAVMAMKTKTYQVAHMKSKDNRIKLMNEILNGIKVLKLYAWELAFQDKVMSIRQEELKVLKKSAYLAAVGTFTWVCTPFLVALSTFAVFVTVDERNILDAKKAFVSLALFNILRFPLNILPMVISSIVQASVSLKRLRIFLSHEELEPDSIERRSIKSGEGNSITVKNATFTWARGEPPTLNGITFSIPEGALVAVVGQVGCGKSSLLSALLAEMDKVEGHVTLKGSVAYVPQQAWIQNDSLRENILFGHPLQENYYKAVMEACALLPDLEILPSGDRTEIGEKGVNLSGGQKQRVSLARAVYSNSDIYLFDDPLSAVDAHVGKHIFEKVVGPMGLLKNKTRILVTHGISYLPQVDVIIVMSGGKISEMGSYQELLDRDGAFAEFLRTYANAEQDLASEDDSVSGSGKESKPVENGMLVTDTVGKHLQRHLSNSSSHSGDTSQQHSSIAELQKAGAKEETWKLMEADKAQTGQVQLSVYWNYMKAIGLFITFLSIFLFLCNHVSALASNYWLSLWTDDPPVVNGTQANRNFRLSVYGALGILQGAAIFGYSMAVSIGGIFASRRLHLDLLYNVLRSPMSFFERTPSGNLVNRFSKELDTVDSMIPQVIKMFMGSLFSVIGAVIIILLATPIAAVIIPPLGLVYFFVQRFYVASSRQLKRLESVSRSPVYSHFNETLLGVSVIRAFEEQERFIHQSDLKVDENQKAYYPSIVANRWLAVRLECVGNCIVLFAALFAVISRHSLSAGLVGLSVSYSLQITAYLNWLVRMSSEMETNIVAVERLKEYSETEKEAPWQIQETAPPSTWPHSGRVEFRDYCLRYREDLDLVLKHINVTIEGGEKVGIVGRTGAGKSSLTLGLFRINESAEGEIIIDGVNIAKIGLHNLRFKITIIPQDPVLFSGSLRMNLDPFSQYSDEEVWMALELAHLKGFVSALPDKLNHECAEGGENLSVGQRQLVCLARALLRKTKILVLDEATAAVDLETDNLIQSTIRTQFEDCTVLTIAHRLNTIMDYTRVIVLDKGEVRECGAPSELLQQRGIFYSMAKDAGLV

[7] = molecular target: Multidrug resistance associated protein (Homo sapiens) (UniProt Q96QA9); assay: TP_TRANSPORTER: inhibition of glyburide accumulation by indomethacin at a concentration of 200uM in MRP3-expressing MDCK cells
[8] = molecular target: Multidrug resistance associated protein (Homo sapiens) (UniProt Q96QA9); assay: TP_TRANSPORTER: inhibition of 5-carboxyfluorescein accumulation by indomethacin at a concentration of 200uM in MRP3-expressing MDCK cells; design: scale not given: the % may be the effect or the level left
[9] = molecular target: T1, ATP-binding cassette sub-family C member 2; assay: TP_TRANSPORTER: inhibition of glyburide accumulation in MRP2-expressing MDCK cells; conditions: dog
[10] = molecular target: T3, Multidrug resistance-associated protein 1; assay: TP_TRANSPORTER: inhibition of glyburide accumulation in the presence of indomethacin at a concentration of 200uM in MRP1-expressing HeLa cells; conditions: human
[11] = molecular target: T3, Multidrug resistance-associated protein 1; assay: TP_TRANSPORTER: inhibition of 5-carboxyfluorescein accumulation in the presence of indomethacin at a concentration of 200uM in MRP1-expressing HeLa cells; design: scale not given: the % may be the effect or the level left; conditions: human

T1 sequence (Q92887 whole entry): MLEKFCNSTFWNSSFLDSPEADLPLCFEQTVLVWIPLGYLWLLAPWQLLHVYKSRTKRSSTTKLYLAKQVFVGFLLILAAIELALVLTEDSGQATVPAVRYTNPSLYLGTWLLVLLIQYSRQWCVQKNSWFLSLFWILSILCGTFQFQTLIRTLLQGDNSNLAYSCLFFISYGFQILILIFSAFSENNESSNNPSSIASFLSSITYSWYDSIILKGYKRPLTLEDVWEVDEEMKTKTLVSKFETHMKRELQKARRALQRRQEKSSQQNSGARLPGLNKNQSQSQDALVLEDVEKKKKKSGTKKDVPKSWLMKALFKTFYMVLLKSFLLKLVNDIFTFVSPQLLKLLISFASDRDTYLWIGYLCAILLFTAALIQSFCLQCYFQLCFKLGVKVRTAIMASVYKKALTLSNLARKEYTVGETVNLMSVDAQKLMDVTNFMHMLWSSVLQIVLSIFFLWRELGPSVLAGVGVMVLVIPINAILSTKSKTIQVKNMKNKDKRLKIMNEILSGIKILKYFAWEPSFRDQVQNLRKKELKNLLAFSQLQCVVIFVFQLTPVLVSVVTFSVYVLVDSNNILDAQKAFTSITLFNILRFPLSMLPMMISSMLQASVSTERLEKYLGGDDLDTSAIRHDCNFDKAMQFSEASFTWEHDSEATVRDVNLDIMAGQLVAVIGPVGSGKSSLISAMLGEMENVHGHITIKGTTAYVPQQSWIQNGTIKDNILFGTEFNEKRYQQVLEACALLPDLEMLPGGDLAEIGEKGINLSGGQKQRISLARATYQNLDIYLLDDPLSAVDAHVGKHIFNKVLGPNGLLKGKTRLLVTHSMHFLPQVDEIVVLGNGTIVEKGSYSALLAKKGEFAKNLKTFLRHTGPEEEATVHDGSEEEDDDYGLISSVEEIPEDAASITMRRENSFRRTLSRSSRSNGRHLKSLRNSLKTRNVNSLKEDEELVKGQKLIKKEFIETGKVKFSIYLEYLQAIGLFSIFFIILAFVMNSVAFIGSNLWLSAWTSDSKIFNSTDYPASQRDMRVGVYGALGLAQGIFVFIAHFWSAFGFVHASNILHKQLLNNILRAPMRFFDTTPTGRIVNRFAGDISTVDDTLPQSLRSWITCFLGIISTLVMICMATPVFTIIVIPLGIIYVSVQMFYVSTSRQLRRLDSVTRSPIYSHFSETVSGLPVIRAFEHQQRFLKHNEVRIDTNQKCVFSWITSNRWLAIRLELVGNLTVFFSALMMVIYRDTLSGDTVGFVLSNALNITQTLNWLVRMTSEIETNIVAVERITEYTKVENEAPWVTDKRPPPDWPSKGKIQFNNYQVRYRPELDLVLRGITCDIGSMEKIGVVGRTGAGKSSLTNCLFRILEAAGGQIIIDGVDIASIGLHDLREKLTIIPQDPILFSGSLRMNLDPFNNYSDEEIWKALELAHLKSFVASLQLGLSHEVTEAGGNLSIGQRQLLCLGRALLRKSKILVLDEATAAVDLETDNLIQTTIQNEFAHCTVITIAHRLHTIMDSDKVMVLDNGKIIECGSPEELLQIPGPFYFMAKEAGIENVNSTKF

## COc1ccc(Cl)cc1C(=O)NCCc1ccc(S(=O)(=O)NC(=O)NC2CCCCC2)cc1 [GLYBURIDE]
[1]
  Activity: is not an inhibitor [-]
[2]
  Activity: 230%
[3]
  pIC50: 3.82
[4]
  Activity: 1350%
[5]
  Activity: is not a inhibitor [-]
[6]
  Activity: is not an inhibitor [-]

## COc1ccc2c(c1)c(CC(=O)O)c(C)n2C(=O)c1ccc(Cl)cc1 [INDOMETHACIN]
[7]
  Activity: 1.8 fold
[8]
  Activity: 350%
[9]
  Activity: is not an inhibitor [-]
[10]
  Activity: inhibitor [+]
[11]
  Activity: 170%
